{"source": "paper PMC4650734", "about": "“FV-162 is a novel, orally bioavailable, irreversible proteasome inhibitor with improved pharmacokinetics displaying preclinical efficacy with continuous daily dosing” (Cell Death & Disease, 2015)", "key": {"[1]": {"experiment": "in vivo", "conditions": "NOD/SCID, mouse, in vivo, po", "protocol": "NOD/SCID mice were administered FV-162 (30 mg/kg daily, 7 days/week) in a 5% DMSO, 20% Cremophor vehicle by oral gavage or ONX-0912 (30 mg/kg daily, 7 days/week) in a 5% DMSO, 20% Cremophor vehicle by oral gavage for a week. Mice were monitored for changes in body weight, behavior, and physical appearance."}, "[2]": {"test_system": "CD138- normal hematopoietic cells", "experiment": "Annexin V flow cytometry viability of primary bone marrow mononuclear cells, normal fraction", "format": "cell-based, human", "conditions": "48 h; for sensitivity of CD138- normal hematopoietic cells: concentrations ⩽0.1 μM for FV-162, similar concentrations for ONX-0912", "protocol": "Human multiple myeloma cell lines 8226, H929, JJN3, KMH11, KMS11, KMS18, LP1, MM.1 S, OPM2, and U266 were grown in Iscove's modified Dulbecco's medium (IMDM). Cell lines were authenticated with short tandem repeat method in September 2011. In addition, cell lines were continually monitored by morphological inspection. Primary mononuclear cells were isolated from peripheral blood or bone marrow samples from multiple myeloma patients at the Princess Margaret Cancer Centre (Toronto, ON, Canada) by Ficoll density gradient centrifugation and cultured in IMDM. All cell culture media were obtained from the Ontario Cancer Institute Tissue Culture Media Facility (Toronto, ON, Canada) and were supplemented with 10% fetal calf serum, 100 μg/ml penicillin, and 100 μg/ml streptomycin (Hyclone, Logan, UT, USA). […] Cellular viability was primarily assessed by MTS assay according to the manufacturer's instructions (Promega, Madison, WI, USA). Ten thousand cells per well were seeded in triplicate in tissue culture-treated 96-well plates. Two hours after seeding, cells were treated with proteasome inhibitors for 72 h (0.01–10 μM) or DMSO vehicle control. Cell viability was independently confirmed by reading the optical density at 490 nm and by exclusion of trypan blue stain (Invitrogen, Burlington, ON, Canada). Viability of primary mononuclear cells was determined by Annexin V–fluorescein isothiocyanate and propidium iodide co-staining (Biovision Research Products, Mountain View, CA, USA) using flow cytometry according to the manufacturer's instructions after 48 h of treatment with inhibitors or vehicle control."}, "[3]": {"experiment": "Pharmacokinetic study in Sprague-Dawley rats", "format": "in vivo", "conditions": "rat; for bioavailability: 40 mg/kg p.o. vs 5 mg/kg i.v."}, "[4]": {"test_system": "CT-L proteasome activity", "experiment": "CT-L proteasome activity in RBCs of treated mice", "format": "in vivo, mouse", "conditions": "for duration of inhibition of proteasome activity in isolated RBCs: after single oral treatment of mice; for inhibition of CT-L activity in RBCs compared with ONX-0912 (30 mg/kg): up to 24 h postdose", "protocol": "Cells were harvested by centrifugation at 1200 r.p.m. at room temperature. Cell pellets were washed with PBS and lysed with assay lysis buffer (50 mM HEPES (2-[4-(2-hydroxyethyl) piperazin-1-yl]ethanesulfonic acid)), pH 7.5; 150 mM NaCl; 1% Triton X-100; 2 mM ATP). Cell lysates were incubated on ice for 30 min, mixed by vortex every 5 min, and centrifuged at 12 000 × g for 10 min. Supernatants were transferred to a 96-well plate in triplicate. For each assay, 10 μg of total protein were incubated for 1 h at 37 °C with increasing concentrations (0.001–10 μM) of test compound or vehicle control diluted in assay buffer (50 mM Tris-HCl (tris(hydroxymethyl)aminomethane-HCl), pH 7.5; 150 mM NaCl). After incubation, a specific fluorogenic proteasome substrate was added to each assay reaction (40 μM in a total volume of 100 μl). N-Succinyl-Leu-Leu-Val-Tyr-7-amino-4-methylcoumarin (Suc-Leu-Leu-Val-Tyr-AMC) was used for measuring CT-L activity, t-butoxycarbonyl- Leu-Arg-Arg-7-amino-4-methylcoumarin (Boc-Leu-Arg-Arg-AMC) for T-L activity, and benzyloxycarbonyl-L-leucyl-L-leucyl-L-glutamyl-7-amino-4-methylcoumarin (Z-Leu-Leu-Glu-AMC) for C-L activity. The excitation wavelength was 360 nm and the fluorescence emission of free AMC released during the enzymatic reaction was detected at 460 nm on a SpectraMax M5 fluorescent spectrophotometric plate reader (Molecular Devices, Sunnyvale, CA, USA). AMC release rate was measured at 37 °C in a kinetic mode, recording every 5 min for 30 min.\nFive-to-six-week-old male NOD/SCID mice were administered vehicle (5% DMSO, 20% Cremophor) or proteasome inhibitors either intravenously or by oral gavage (3 mice per group), and 20–50 μl of venous blood were collected from each mouse over 24 h. Blood samples were mixed with heparin (APP Pharmaceuticals; Schaumburg, IL, USA) in 0.5-ml tubes in accordance with the manufacturer's instructions. After centrifugal separation at 3000 × g for 10 min, RBCs in the bottom layer were transferred into a new tube and stored at −70 °C until use. RBCs were lysed with assay lysis buffer and incubated on ice for 30 min, mixing by vortex every 5 min, and centrifuged at 12 000 × g for 10 min. Supernatants were transferred to a 96-well plate and proteasome activity was measured as described in 'Cell lysates' section."}, "[5]": {"test_system": "10 human myeloma cell lines", "experiment": "MTS cell growth and viability assay", "format": "cell-based", "conditions": "72 h", "protocol": "Human multiple myeloma cell lines 8226, H929, JJN3, KMH11, KMS11, KMS18, LP1, MM.1 S, OPM2, and U266 were grown in Iscove's modified Dulbecco's medium (IMDM). Cell lines were authenticated with short tandem repeat method in September 2011. In addition, cell lines were continually monitored by morphological inspection. Primary mononuclear cells were isolated from peripheral blood or bone marrow samples from multiple myeloma patients at the Princess Margaret Cancer Centre (Toronto, ON, Canada) by Ficoll density gradient centrifugation and cultured in IMDM. All cell culture media were obtained from the Ontario Cancer Institute Tissue Culture Media Facility (Toronto, ON, Canada) and were supplemented with 10% fetal calf serum, 100 μg/ml penicillin, and 100 μg/ml streptomycin (Hyclone, Logan, UT, USA). […]\nCellular viability was primarily assessed by MTS assay according to the manufacturer's instructions (Promega, Madison, WI, USA). […] Cell viability was independently confirmed by reading the optical density at 490 nm and by exclusion of trypan blue stain (Invitrogen, Burlington, ON, Canada). Viability of primary mononuclear cells was determined by Annexin V–fluorescein isothiocyanate and propidium iodide co-staining (Biovision Research Products, Mountain View, CA, USA) using flow cytometry according to the manufacturer's instructions after 48 h of treatment with inhibitors or vehicle control."}, "[6]": {"test_system": "C-L subunit activity", "experiment": "C-L proteasome activity in RBCs of treated mice", "format": "in vivo, mouse", "conditions": "FV-162 30 mg/ml as printed in Figure 5e legend"}, "[7]": {"conditions": "male, Sprague-Dawley, plasma, iv, 5 mg/kg i.v."}, "[8]": {"conditions": "male, Sprague-Dawley, plasma, iv, 5 mg/kg i.v., read-out: AUC (converted)"}, "[9]": {"conditions": "male, Sprague-Dawley, plasma, iv, 5 mg/kg i.v., read-out: Cmax"}, "[10]": {"conditions": "male, Sprague-Dawley, plasma, po, 40 mg/kg p.o."}, "[11]": {"conditions": "male, Sprague-Dawley, plasma, po"}, "[12]": {"conditions": "male, Sprague-Dawley, plasma, 40 mg/kg oral, read-out: AUC (as printed in text) (converted)"}, "[13]": {"conditions": "male, Sprague-Dawley, plasma, 40 mg/kg oral, read-out: Cmax (as printed in text)"}}, "note": "Like-named read-outs stand apart in the source and are kept apart here."}
{"smiles": "COC[C@H](NC(=O)c1cnc(C)s1)C(=O)N[C@@H](COC)C(=O)N[C@@H](Cc1ccccc1)C(=O)[C@@]1(C)CO1", "note": "[ONX-0912, reference compound]", "values": [{"measurement": "MTD", "setting": "[1]", "result": 40, "unit": "mg/kg"}, {"measurement": "sensitivity of CD138- normal hematopoietic cells", "setting": "[2]", "result": "no adverse effects"}, {"measurement": "Tmax", "setting": "[3]; [7]", "result": 5, "unit": "min"}, {"measurement": "Vd", "setting": "[3]; [7]", "result": 4, "unit": "L/kg"}, {"measurement": "clearance", "setting": "[3]; [7]", "result": 273, "unit": "mL/min/kg"}, {"measurement": "half-life", "setting": "[3]; [7]", "result": 10, "unit": "min"}, {"measurement": "AUC", "setting": "[3]; [8]", "result": 301, "unit": "ng·h/mL"}, {"measurement": "Cmax", "setting": "[3]; [9]", "result": 1090, "unit": "ng/mL"}, {"measurement": "Tmax", "setting": "[3]; [10]", "result": 5, "unit": "min"}, {"measurement": "bioavailability", "setting": "[3]; [11]", "result": 16, "unit": "%"}, {"measurement": "AUC", "setting": "[3]; [12]", "result": 377, "unit": "ng·h/mL"}, {"measurement": "Cmax", "setting": "[3]; [13]", "result": 1270, "unit": "ng/mL"}, {"measurement": "AUC", "setting": "[3]; 40 mg/kg p.o.", "result": "22 627 min × ng/ml"}, {"measurement": "duration of inhibition of proteasome activity in isolated RBCs", "setting": "[4]", "result": "sustained for up to 24 h"}]}
{"smiles": "Cc1ncc(C(=O)N[C@@H](COC(F)F)C(=O)N[C@@H](COC(F)F)C(=O)N[C@@H](Cc2ccccc2)C(=O)[C@@]2(C)CO2)s1", "note": "[FV-162]", "values": [{"measurement": "cell growth and viability (MTS)", "setting": "[5]; all 10 human myeloma cell lines", "result": "decreased cell growth and viability"}, {"measurement": "potency in MTS assay relative to ONX-0912", "setting": "[5]; in 5 of the 10 cell lines", "result": "over two times more potent than ONX-0912"}, {"measurement": "MTD", "setting": "[1]", "result": 200, "unit": "mg/kg"}, {"measurement": "CD138- cells to which compound was toxic", "setting": "[2]; 0.5 μM", "result": 50, "unit": "%"}, {"measurement": "sensitivity of CD138- normal hematopoietic cells", "setting": "[2]", "result": "largely insensitive"}, {"measurement": "inhibition of C-L subunit activity in murine RBCs", "setting": "[6]", "result": "did not inhibit"}, {"measurement": "Tmax", "setting": "[3]; [7]", "result": 5, "unit": "min"}, {"measurement": "Vd", "setting": "[3]; [7]", "result": 20, "unit": "L/kg"}, {"measurement": "half-life", "setting": "[3]; [7]", "result": 68, "unit": "min"}, {"measurement": "AUC", "setting": "[3]; [8]", "result": 403, "unit": "ng·h/mL"}, {"measurement": "Cmax", "setting": "[3]; [9]", "result": 392, "unit": "ng/mL"}, {"measurement": "Tmax", "setting": "[3]; [10]", "result": 15, "unit": "min"}, {"measurement": "bioavailability", "setting": "[3]; [11]", "result": 14, "unit": "%"}, {"measurement": "AUC", "setting": "[3]; [12]", "result": 451, "unit": "ng·h/mL"}, {"measurement": "Cmax", "setting": "[3]; [13]", "result": 615, "unit": "ng/mL"}, {"measurement": "AUC", "setting": "[3]; 40 mg/kg p.o.", "result": "27 073 min × ng/ml"}, {"measurement": "duration of inhibition of proteasome activity in isolated RBCs", "setting": "[4]", "result": "sustained for up to 24 h"}, {"measurement": "inhibition of CT-L activity in RBCs compared with ONX-0912 (30 mg/kg)", "setting": "[4]; single oral dose 30 mg/kg", "result": "less inhibition of the CT-L activity than ONX-0912"}, {"measurement": "inhibition of CT-L activity in RBCs compared with ONX-0912 (30 mg/kg)", "setting": "[4]; single oral dose 100 mg/kg (half the MTD)", "result": "performed similarly to almost the MTD of ONX-0912"}]}
